Experimental data taken from PubChem BioAssay AID328 (DTP/NCI, 2004).
Values joined by “and” are separate entries in the source; they are usually repeats but may differ in a detail not shown here. Identical values can stand only once. Toxic doses and inconclusive results are not listed. Non-standard residues stand in square brackets, D forms with d. Residues, ends and D or L forms follow the SMILES beside them. ξ: configuration not given here. *: point of attachment. Boc = CC(C)(C)OC(=O)*; ξP = O=C(O)C1CCCN1

Tested on: BDF1 mice, P388 leukemia ip, median survival T/C
Test: NCI In Vivo Anticancer Drug Screen. Data for tumor model P388 Leukemia (intraperitoneal) in B6D2F1 (BDF1) mice
Details: endpoint: median survival time, higher = longer survival
In short: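 Read-out is survival of treated animals expressed relative to the vehicle group, as a T/C ratio.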

[1] = dose: 25.0 mg/kg/injection, schedule: Q04DX003 (ip), vehicle: Klucel (hydroxypropylcellulose) (HPC)
[2] = dose: 50.0 mg/kg/injection, schedule: Q01DX009 (ip), vehicle: Klucel (hydroxypropylcellulose) (HPC)
[3] = dose: 50.0 mg/kg/injection, schedule: Q04DX003 (ip), vehicle: Klucel (hydroxypropylcellulose) (HPC)
[4] = dose: 100.0 mg/kg/injection, schedule: Q01DX009 (ip), vehicle: Klucel (hydroxypropylcellulose) (HPC)
[5] = dose: 100.0 mg/kg/injection, schedule: Q04DX003 (ip), vehicle: Klucel (hydroxypropylcellulose) (HPC)
[6] = dose: 25.0 mg/kg/injection, schedule: Q01DX009 (ip), vehicle: saline
[7] = dose: 200.0 mg/kg/injection, schedule: Q04DX003 (ip), vehicle: Klucel (hydroxypropylcellulose) (HPC)
[8] = dose: 50.0 mg/kg/injection, schedule: Q01DX009 (ip), vehicle: saline with Tween-80
[9] = dose: 100.0 mg/kg/injection, schedule: Q01DX009 (ip), vehicle: saline with Tween-80
[10] = dose: 200.0 mg/kg/injection, schedule: Q01DX009 (ip), vehicle: saline with Tween-80
[11] = dose: 100.0 mg/kg/injection, schedule: Q04DX003 (ip), vehicle: other
[12] = dose: 200.0 mg/kg/injection, schedule: Q04DX003 (ip), vehicle: other
[13] = dose: 400.0 mg/kg/injection, schedule: Q04DX003 (ip), vehicle: other
[14] = dose: 400.0 mg/kg/injection, schedule: Q04DX003 (ip), vehicle: Klucel (hydroxypropylcellulose) (HPC)
[15] = dose: 400.0 mg/kg/injection, schedule: Q01DX009 (ip), vehicle: saline with Tween-80
[16] = dose: 400.0 mg/kg/injection, schedule: Q01DX009 (ip), vehicle: Klucel (hydroxypropylcellulose) (HPC)

In the case of `C#CC[N+]1=CN(c2ccc(C)cc2)Cc2cc(C)ccc21`, the T/C [1] is reported as 105 % of control, the T/C [2] is reported as 122 % of control and the T/C [3] is reported as 100 % of control. For the same compound, the T/C [4] was 122 % of control, the T/C [5] was 95 % of control and 100 % of control and 109 % of control and the T/C (dose: 150.0 mg/kg/injection, schedule: Q04DX003 (ip), vehicle: Klucel (hydroxypropylcellulose) (HPC)) was 100 % of control and 110 % of control. The T/C (dose: 225.0 mg/kg/injection, schedule: Q04DX003 (ip), vehicle: Klucel (hydroxypropylcellulose) (HPC)) was 110 % of control.

In the case of `CN(C)c1ccc(C(O)C(N)=O)cc1` (stereo unspecified), the T/C (dose: 6.25 mg/kg/injection, schedule: Q01DX009 (ip), vehicle: saline) is reported as 90 % of control and the T/C [6] is reported as 90 % of control.

In the case of `CC1=C(O)C(O)C2OC2C1=O` (stereo unspecified), the T/C (dose: 12.5 mg/kg/injection, schedule: Q01DX009 (ip), vehicle: saline) is reported as 96 % of control, the T/C [6] is reported as 87 % of control and the T/C (dose: 50.0 mg/kg/injection, schedule: Q01DX009 (ip), vehicle: saline) is reported as 107 % of control.

`N/C(=N/O)c1[nH]cnc1N` was tested, and the T/C (dose: 12.5 mg/kg/injection, schedule: Q01DX009 (ip), vehicle: water) was 101 % of control, the T/C (dose: 25.0 mg/kg/injection, schedule: Q01DX009 (ip), vehicle: water) was 97 % of control and the T/C (dose: 50.0 mg/kg/injection, schedule: Q01DX009 (ip), vehicle: water) was 103 % of control. For the same compound, the T/C (dose: 100.0 mg/kg/injection, schedule: Q01DX009 (ip), vehicle: water) was 103 % of control.

With `CCSc1ncnc2nc[nH]c12` the T/C [5] was 104 % of control and the T/C [7] was 109 % of control.

With `CCCCCCC(=O)/C=C/c1ccc(Cl)c(Cl)c1` the T/C (dose: 75.0 mg/kg/injection, schedule: Q01DX009 (ip), vehicle: saline with Tween-80) was 106 % of control, the T/C (dose: 150.0 mg/kg/injection, schedule: Q01DX009 (ip), vehicle: saline with Tween-80) was 98 % of control and the T/C (dose: 300.0 mg/kg/injection, schedule: Q01DX009 (ip), vehicle: saline with Tween-80) was 93 % of control.

`CS(=O)CC(O)(c1ccccc1)c1ccncc1` (stereo unspecified) was tested, and the T/C [8] was 99 % of control, the T/C [9] was 112 % of control and the T/C [10] was 110 % of control.

With `CCN(CC)S(=O)(=O)c1cccc(C(O)CC(O)(C(F)(F)F)C(F)(F)F)c1` (stereo unspecified) the T/C [11] was 95 % of control, the T/C [12] was 86 % of control and the T/C [13] was 90 % of control.

`Cn1c(=O)c(-c2ccccc2)[n+]([O-])c2ccccc21` was tested, and the T/C (dose: 25.0 mg/kg/injection, schedule: Q01DX009 (ip), vehicle: saline with Tween-80) was 98 % of control, the T/C [8] was 107 % of control and the T/C [9] was 100 % of control. The T/C [10] was 113 % of control.

With `CC(=O)OCC(=O)[C@@]1(O)CC[C@H]2[C@@H]3CCC4=CC(=O)CC[C@]4(C)[C@@]3(F)[C@@H](O)C[C@@]21C` the T/C (dose: 50.0 mg/kg/injection, schedule: Q01DX009 (sc), vehicle: steriod suspending solution) was 104 % of control, the T/C (dose: 100.0 mg/kg/injection, schedule: Q01DX009 (sc), vehicle: steriod suspending solution) was 104 % of control and the T/C (dose: 100.0 mg/kg/injection, schedule: Q04DX003 (sc), vehicle: steriod suspending solution) was 115 % of control. The T/C (dose: 200.0 mg/kg/injection, schedule: Q04DX003 (sc), vehicle: steriod suspending solution) was 115 % of control.

`Cc1ccc(S(=O)(=O)N(C)c2ccc(I)c(Cl)c2Cl)cc1` was tested, and the T/C [5] was 100 % of control, the T/C [7] was 90 % of control and the T/C [14] was 90 % of control.

`N#Cc1c2c(c(O)[nH]c1=O)CCCC2` was tested, and the T/C [9] was 120 % of control, the T/C [10] was 105 % of control and the T/C [15] was 120 % of control.

For `O=S1(=O)C=CCC2C3CCC(C3)C21` (stereo unspecified), the T/C (dose: 100.0 mg/kg/injection, schedule: Q01DX001 (ip), vehicle: saline with Tween-80) was 100 % of control and the T/C (dose: 200.0 mg/kg/injection, schedule: Q01DX001 (ip), vehicle: saline with Tween-80) was 106 % of control.

With `Cc1cc(N)c2cc(NC(=O)CCCCCCCCC(=O)Nc3ccc4nc(C)cc(N)c4c3)ccc2n1` the T/C (dose: 5.5 mg/kg/injection, schedule: Q01DX009 (ip), vehicle: Klucel (hydroxypropylcellulose) (HPC)) was 108 % of control, the T/C (dose: 8.2 mg/kg/injection, schedule: Q01DX009 (ip), vehicle: Klucel (hydroxypropylcellulose) (HPC)) was 121 % of control and the T/C (dose: 8.3 mg/kg/injection, schedule: Q04DX003 (ip), vehicle: Klucel (hydroxypropylcellulose) (HPC)) was 91 % of control. The T/C (dose: 12.0 mg/kg/injection, schedule: Q04DX003 (ip), vehicle: Klucel (hydroxypropylcellulose) (HPC)) was 104 % of control, the T/C (dose: 45.0 mg/kg/injection, schedule: Q04DX003 (ip), vehicle: Klucel (hydroxypropylcellulose) (HPC)) was 150 % of control and the T/C [2] was 186 % of control. The T/C (dose: 80.0 mg/kg/injection, schedule: Q04DX003 (ip), vehicle: Klucel (hydroxypropylcellulose) (HPC)) was 168 % of control, the T/C [11] was 172 % of control and the T/C (dose: 120.0 mg/kg/injection, schedule: Q04DX003 (ip), vehicle: Klucel (hydroxypropylcellulose) (HPC)) was 172 % of control. The T/C (dose: 180.0 mg/kg/injection, schedule: Q04DX003 (ip), vehicle: Klucel (hydroxypropylcellulose) (HPC)) was 177 % of control, the T/C [7] was 150 % of control and the T/C [12] was 181 % of control. The T/C (dose: 264.0 mg/kg/injection, schedule: Q04DX003 (ip), vehicle: Klucel (hydroxypropylcellulose) (HPC)) was 227 % of control, the T/C [16] was 160 % of control and the T/C [14] was 261 % of control and 160 % of control. For the same compound, the T/C [13] was 186 % of control.

With `Oc1c(Cl)cc(Cl)cc1C=Nc1cc(C(F)(F)F)ccc1NCc1ccccc1` the T/C [8] was 93 % of control, the T/C [9] was 89 % of control and the T/C [10] was 94 % of control.

With `CN(N=O)C(=O)Nc1ccc(C(=O)O)cc1` the T/C (dose: 29.0 mg/kg/injection, schedule: Q04DX003 (ip), vehicle: saline with Tween-80) was 159 % of control, the T/C (dose: 45.0 mg/kg/injection, schedule: Q04DX003 (ip), vehicle: saline with Tween-80) was 163 % of control and the T/C (dose: 66.0 mg/kg/injection, schedule: Q04DX003 (ip), vehicle: saline with Tween-80) was 170 % of control. The T/C (dose: 100.0 mg/kg/injection, schedule: Q04DX003 (ip), vehicle: saline with Tween-80) was 250 % of control and the T/C (dose: 150.0 mg/kg/injection, schedule: Q04DX003 (ip), vehicle: saline with Tween-80) was 240 % of control.

`Clc1nc2nc(C3CC3)[nH]c2nc1Cl` was tested, and the T/C [9] was 104 % of control, the T/C [10] was 100 % of control and the T/C [15] was 104 % of control.

With `O/N=C\CCC/C=N/O` the T/C [3] was 100 % of control, the T/C [4] was 91 % of control and the T/C [5] was 100 % of control. For the same compound, the T/C (dose: 200.0 mg/kg/injection, schedule: Q01DX009 (ip), vehicle: Klucel (hydroxypropylcellulose) (HPC)) was 95 % of control, the T/C [7] was 100 % of control and the T/C [16] was 95 % of control.

`CC(C)(C)OC(=O)NCC(=O)N1CCCC1C(=O)O` (stereo not drawn) (Boc-Gly-[ξP]-OH) was tested, and the T/C (dose: 50.0 mg/kg/injection, schedule: Q01DX005 (ip), vehicle: saline) was 92 % of control, the T/C (dose: 100.0 mg/kg/injection, schedule: Q01DX005 (ip), vehicle: saline) was 90 % of control and the T/C (dose: 200.0 mg/kg/injection, schedule: Q01DX005 (ip), vehicle: saline) was 100 % of control.

`O=C(NC(C(=O)O)C(O)c1cn(C(=O)OCc2ccccc2)cn1)OCc1ccccc1` (stereo unspecified) was tested, and the T/C [8] was 113 % of control, the T/C [9] was 110 % of control and the T/C [10] was 98 % of control.

`COc1cc2c(cc1OC)C(NC(C)=O)N(C)c1c-2ccc2cc3c(cc12)OCO3` (stereo unspecified) was tested, and the T/C (dose: 40.0 mg/kg/injection, schedule: Q01DX009 (ip), vehicle: saline) was 168 % of control, the T/C (dose: 80.0 mg/kg/injection, schedule: Q01DX009 (ip), vehicle: saline) was 104 % of control and the T/C (dose: 120.0 mg/kg/injection, schedule: Q01DX009 (ip), vehicle: saline) was 100 % of control.

`CCOC(=O)c1ccc(C(=O)OCC)c(Cl)n1` was tested, and the T/C (dose: 25.0 mg/kg/injection, schedule: Q01DX009 (ip), vehicle: Klucel (hydroxypropylcellulose) (HPC)) was 112 % of control, the T/C [1] was 95 % of control and the T/C [2] was 95 % of control. For the same compound, the T/C [3] was 100 % of control, the T/C [4] was 87 % of control and the T/C [5] was 86 % of control and 91 % of control.
